For 5 compounds, IC50 and inhibition results are on record in US7579356B2, “Thia-tetraazaacenaphthylene kinase inhibitors” (Janssen Pharmaceutica NV, priority 2005, dated 2009).

The term IC50 denotes the midpoint of a concentration-inhibition curve. As usually defined, the inhibition is the relative decrease from the control value, in per cent.

In one assay the target is T1, EGFR (Homo sapiens, UniProt P00533).
T1 construct: The intracellular portion of EGFR started at nucleotide 2189 (corresponding to amino acid 667) and ended at the termination codon; made in house; host or cells: Sf9 insect cells (baculovirus)
Nature of the assay: EGFR Kinase Assay. It counts as biochemical. The settings on record: for IC50: GST-EGFR, ATP 5 μM. A digest of the protocol: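 Potency came from triplicate 16-point half-log titrations starting at 200 uM, with IC50 fitted from % inhibition against log concentration, or % inhibition at 2 μM otherwise. Reaction: Sf9-made GST–EGFR cytoplasmic region (aa 667 onward), biotin-polyGluTyr, 5 μM ATP with 33P tracer, pH 8.0 Tris/Mg/vanadate/DTT, 30 °C for 1 h; captured on streptavidin Flashplates and counted.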

Another assay concerns A375 malignant melanoma. Nature of the assay: Cell Proliferation Inhibition Assay, A375 (14C-thymidine). It counts as cell-based. The settings on record: Homo sapiens, A-375. The source says:
Cell Proliferation Inhibition Assay
The ability of a test compound to inhibit unregulated cell proliferation may be determined by measuring incorporation of ^14C-labelled thymidine into newly synthesized DNA within cell lines derived from carcinomas originating from several tissues. Accordingly, the effect of a test compound on proliferation of cells with a variety of phenotypes may be determined.
Carcinoma cell lines used include the HeLa cervical adenocarcinoma from the American Type Culture Collection (ATCC Cat. #CCL2), A375 malignant melanoma (ATCC Cat. #CRL-1619), HCT-116 colon carcinoma (ATCC Cat. #CCL-247), SKBR3 breast carcinoma (ATCC Cat. #HTB-30) and BT474 breast carcinoma (ATCC Cat. #HTB-20).
The carcinoma cells were trypsinized and counted. The cells (3000-8000 count) were added to each well of a 96-well CytoStar tissue culture treated scintillating microplate (Amersham #RPNQ0160) in complete medium (100 μL) and the plate was then incubated in complete medium for 24 hrs at 37° C. in an inert atmosphere containing 5% CO2.
Test compound (1 μL) in 100% DMSO was added to the plate test-wells with DMSO only added to control-wells. The plate was incubated in complete medium for a second 24 hr period at 37° C. in an atmosphere containing 5% CO2.
An aliquot of a solution of Methyl ^14C-thymidine (56 mC/mmol) (NEN #NEC568 or AMersham #CFA532) and complete medium (20 uL to provide 0.2 μCl/well) was then added to each well and the plate was incubated for a third 24 hr period at 37° C. in an atmosphere containing 5% CO2.
The plate contents were then discarded, the plate washed twice with PBS (200 μL) and then PBS (200 μL) was added to each well. The plate was sealed and the degree of methyl ^14C-thymidine incorporation was quantified on a Packard Top Count.
Cell proliferation of the Hela cell line was measured using the ATP-Lite method as described in the ATP Lite Kit (Perkin-Elmer Kit Number 6106941) or the C^14 method as described above. Cell proliferation of the other cell lines was measured using the C^14 method.

T1 sequence (P00533 669-1210 limits assumed): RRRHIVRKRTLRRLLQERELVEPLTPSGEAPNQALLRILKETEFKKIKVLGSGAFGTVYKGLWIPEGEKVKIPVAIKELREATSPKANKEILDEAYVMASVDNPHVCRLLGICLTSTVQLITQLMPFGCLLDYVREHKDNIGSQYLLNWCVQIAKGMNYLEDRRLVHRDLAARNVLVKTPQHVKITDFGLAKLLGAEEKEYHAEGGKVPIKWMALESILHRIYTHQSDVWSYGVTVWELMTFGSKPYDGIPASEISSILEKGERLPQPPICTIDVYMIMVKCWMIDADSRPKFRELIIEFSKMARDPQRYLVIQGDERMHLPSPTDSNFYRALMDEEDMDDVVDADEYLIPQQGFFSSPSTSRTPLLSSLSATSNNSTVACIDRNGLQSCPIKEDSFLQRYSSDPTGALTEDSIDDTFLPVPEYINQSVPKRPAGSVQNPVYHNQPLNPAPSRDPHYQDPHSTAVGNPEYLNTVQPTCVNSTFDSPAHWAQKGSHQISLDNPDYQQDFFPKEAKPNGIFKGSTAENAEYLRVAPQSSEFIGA

For the compound `CC(C)(C)OC(=O)N1CCC(NC(=O)c2sc3ncnc4c3c2NC(=O)N4c2ccc3c(ccn3Cc3cccc(F)c3)c2)CC1` [Cpd 91, 4-({5-[1-(3-fluoro-benzyl)-1H-indol-5-yl]-4-oxo-4,5-dihydro-3H-1-thia-3,5,6,8-tetraaza-acenaphthylene-2-carbonyl}-amino)-piperidine-1-carboxylic acid tert-butyl ester], the IC50 at EGFR is 0.168 µM; in the assay with A375 malignant melanoma, 10 µM.
Regarding `CCOC(=O)c1sc2ncnc3c2c1NC(=O)N3c1ccc(C)c(Br)c1` [Cpd 102, 5-(3-bromo-4-methyl-phenyl)-4-oxo-4,5-dihydro-3H-1-thia-3,5,6,8-tetraaza-acenaphthylene-2-carboxylic acid ethyl ester], the inhibition at 2 µM on EGFR (test concentration of 2 μM, compounds without an IC50, read-out: EGFR inhibition in percent) amounted to 17%. In the assay on A375 malignant melanoma, inhibition was half-maximal at 100 µM (IC50).
Regarding `CN1CCC(NC(=O)c2sc3ncnc4c3c2NC(=O)N4c2ccc(Oc3ccc(F)cc3)cc2)CC1` [Cpd 118, 5-[4-(4-fluoro-phenoxy)-phenyl]-4-oxo-4,5-dihydro-3H-1-thia-3,5,6,8-tetraaza-acenaphthylene-2-carboxylic acid (1-methyl-piperidin-4-yl)-amide], the concentration for half-maximal inhibition (IC50) on EGFR is 0.132 µM; in the assay with A375 malignant melanoma it was 10 µM.
Take `O=C(NCCCN1CCOCC1)c1sc2ncnc3c2c1NC(=O)N3c1ccc2c(ccn2Cc2cccc(F)c2)c1` [Cpd 95, 5-[1-(3-fluoro-benzyl)-1H-indol-5-yl]-4-oxo-4,5-dihydro-3H-1-thia-3,5,6,8-tetraaza-acenaphthylene-2-carboxylic acid (3-morpholin-4-yl-propyl)-amide]: the 50% inhibitory concentration (IC50) against EGFR worked out at 0.069 µM; in the assay with A375 malignant melanoma, 10 µM.
On the same counts, the results for `Cc1ccc(Br)cc1N1C(=O)Nc2c(C(=O)NC3CCN(C)CC3)sc3ncnc1c23` [Cpd 117, 5-(5-bromo-2-methyl-phenyl)-4-oxo-4,5-dihydro-3H-1-thia-3,5,6,8-tetraaza-acenaphthylene-2-carboxylic acid (1-methyl-piperidin-4-yl)-amide] are 1.78 µM and 100 µM.
